Measurements reported in the supplement of paper PMC10307832.

Experiments:
Experiment in all cases: relative viability (nuclei count vs DMSO), 5 days (fraction); higher = more cells survive
[1] = compound: COc1ncc(-c2ccc3nccc(-c4ccnnc4)c3c2)cc1NS(=O)(=O)c1ccc(F)cc1F [Omipalisib]
Summary of the method: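 Viability was defined as treated-well nuclei divided by vehicle-well nuclei, with the median taken over replicate plates. Cells from lung cancer lines sat overnight at 37 °C in 1536-well plates, received five √10-spaced library-drug doses by pinning on vehicle-anchored plates, and grew 5 days without medium change before one-step fixation, permeabilisation and Hoechst staining, 4× imaging and MetaXpress nuclear counts. Only plates with control CV under 25% and at least one doubling were kept.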

[2] = compound: COc1ncc(-c2ccc3nccc(-c4ccnnc4)c3c2)cc1NS(=O)(=O)c1ccc(F)cc1F [Omipalisib] + C[C@]1(O)C[C@@H](c2nc(-c3ccc4ccc(-c5ccccc5)nc4c3)c3c(N)nccn32)C1 [Linsitinib] (partner 1 µM)
Summary of the method: (§1)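 Dosing by pin tool came one day after lung cancer cell lines were seeded in 1536-well plates, using either one drug or a fixed anchor-drug dose plus five library-drug doses (not always all listed) in √10 steps. After 5 days, nuclei were counted on 4× images. Relative viability is treated-well nuclei count divided by vehicle-well nuclei count, and values are medians of duplicate plates.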

[3] = compound: COc1ncc(-c2ccc3nccc(-c4ccnnc4)c3c2)cc1NS(=O)(=O)c1ccc(F)cc1F [Omipalisib] + Nc1ncn([C@H]2C[C@H](O)[C@@H](CO)O2)c(=O)n1 [Decitabine] (partner 2 µM)
Summary of the method: as §1

HCC-827
relative viability ([1]; 0.0003 µM): 1.04 | relative viability ([1]; 0.003 µM): 1.04 | relative viability ([1]; 0.03 µM): 0.666 | relative viability ([2]; first compound 0.0003 µM): 0.911 | relative viability ([2]; first compound 0.003 µM): 0.922 | relative viability ([2]; first compound 0.03 µM): 0.387 | relative viability ([3]; first compound 0.0003 µM): 0.298 | relative viability ([3]; first compound 0.003 µM): 0.244 | relative viability ([3]; first compound 0.03 µM): 0.239

HCC-366
relative viability ([1]; 0.0003 µM): 0.938 | relative viability ([1]; 0.003 µM): 0.853 | relative viability ([1]; 0.03 µM): 0.366 | relative viability ([2]; first compound 0.0003 µM): 0.394 | relative viability ([2]; first compound 0.003 µM): 0.156 | relative viability ([2]; first compound 0.03 µM): 0.0479 | relative viability ([3]; first compound 0.0003 µM): 0.285 | relative viability ([3]; first compound 0.003 µM): 0.217 | relative viability ([3]; first compound 0.03 µM): 0.105

UMC-11
relative viability ([1]; 0.0003 µM): 0.886 | relative viability ([1]; 0.003 µM): 0.643 | relative viability ([1]; 0.03 µM): 0.823 | relative viability ([2]; first compound 0.0003 µM): 0.953 | relative viability ([2]; first compound 0.003 µM): 0.838 | relative viability ([2]; first compound 0.03 µM): 0.694 | relative viability ([3]; first compound 0.0003 µM): 0.491 | relative viability ([3]; first compound 0.003 µM): 0.397 | relative viability ([3]; first compound 0.03 µM): 0.527

NCI-H727
relative viability ([1]; 0.0003 µM): 1.05 | relative viability ([1]; 0.003 µM): 0.68 | relative viability ([1]; 0.03 µM): 0.544 | relative viability ([2]; first compound 0.0003 µM): 0.276 | relative viability ([2]; first compound 0.003 µM): 0.245 | relative viability ([2]; first compound 0.03 µM): 0.234 | relative viability ([3]; first compound 0.0003 µM): 0.778 | relative viability ([3]; first compound 0.003 µM): 0.712 | relative viability ([3]; first compound 0.03 µM): 0.755

NCI-H2009
relative viability ([1]; 0.0003 µM): 1.06 | relative viability ([1]; 0.003 µM): 1.02 | relative viability ([1]; 0.03 µM): 0.755 | relative viability ([2]; first compound 0.0003 µM): 1.13 | relative viability ([2]; first compound 0.003 µM): 1.18 | relative viability ([2]; first compound 0.03 µM): 0.946 | relative viability ([3]; first compound 0.0003 µM): 0.355 | relative viability ([3]; first compound 0.003 µM): 0.389 | relative viability ([3]; first compound 0.03 µM): 0.324

NCI-H2405
relative viability ([1]; 0.0003 µM): 0.982 | relative viability ([1]; 0.003 µM): 0.681 | relative viability ([1]; 0.03 µM): 0.351 | relative viability ([2]; first compound 0.0003 µM): 0.931 | relative viability ([2]; first compound 0.003 µM): 0.68 | relative viability ([2]; first compound 0.03 µM): 0.387 | relative viability ([3]; first compound 0.0003 µM): 0.701 | relative viability ([3]; first compound 0.003 µM): 0.482 | relative viability ([3]; first compound 0.03 µM): 0.308

NCI-H23
relative viability ([1]; 0.0003 µM): 0.913 | relative viability ([1]; 0.003 µM): 0.594 | relative viability ([1]; 0.03 µM): 0.464 | relative viability ([2]; first compound 0.0003 µM): 0.596 | relative viability ([2]; first compound 0.003 µM): 0.397 | relative viability ([2]; first compound 0.03 µM): 0.346 | relative viability ([3]; first compound 0.0003 µM): 0.308 | relative viability ([3]; first compound 0.003 µM): 0.24 | relative viability ([3]; first compound 0.03 µM): 0.243

NCI-H2347
relative viability ([1]; 0.0003 µM): 0.972 | relative viability ([1]; 0.003 µM): 0.978 | relative viability ([1]; 0.03 µM): 0.579 | relative viability ([2]; first compound 0.0003 µM): 0.892 | relative viability ([2]; first compound 0.003 µM): 0.947 | relative viability ([2]; first compound 0.03 µM): 0.61 | relative viability ([3]; first compound 0.0003 µM): 0.538 | relative viability ([3]; first compound 0.003 µM): 0.523 | relative viability ([3]; first compound 0.03 µM): 0.464

NCI-H2170
relative viability ([1]; 0.0003 µM): 0.813 | relative viability ([1]; 0.003 µM): 0.608 | relative viability ([1]; 0.03 µM): 0.587 | relative viability ([3]; first compound 0.0003 µM): 0.446 | relative viability ([3]; first compound 0.003 µM): 0.339 | relative viability ([3]; first compound 0.03 µM): 0.29

PC-3 [JPC-3]
relative viability ([1]; 0.0003 µM): 1.01 | relative viability ([1]; 0.003 µM): 1.07 | relative viability ([1]; 0.03 µM): 0.912 | relative viability ([2]; first compound 0.0003 µM): 0.962 | relative viability ([2]; first compound 0.003 µM): 0.976 | relative viability ([2]; first compound 0.03 µM): 0.92 | relative viability ([3]; first compound 0.0003 µM): 0.776 | relative viability ([3]; first compound 0.003 µM): 0.816 | relative viability ([3]; first compound 0.03 µM): 0.627

NCI-H1355
relative viability ([1]; 0.0003 µM): 0.945 | relative viability ([1]; 0.003 µM): 0.664 | relative viability ([1]; 0.03 µM): 0.578 | relative viability ([2]; first compound 0.0003 µM): 0.737 | relative viability ([2]; first compound 0.003 µM): 0.584 | relative viability ([2]; first compound 0.03 µM): 0.358 | relative viability ([3]; first compound 0.0003 µM): 0.366 | relative viability ([3]; first compound 0.003 µM): 0.326 | relative viability ([3]; first compound 0.03 µM): 0.242

NCI-H3122
relative viability ([1]; 0.0003 µM): 0.971 | relative viability ([1]; 0.003 µM): 0.956 | relative viability ([1]; 0.03 µM): 0.538 | relative viability ([2]; first compound 0.0003 µM): 1.11 | relative viability ([2]; first compound 0.003 µM): 0.699 | relative viability ([2]; first compound 0.03 µM): 0.392 | relative viability ([3]; first compound 0.0003 µM): 0.319 | relative viability ([3]; first compound 0.003 µM): 0.258 | relative viability ([3]; first compound 0.03 µM): 0.139

COR-L 105
relative viability ([1]; 0.0003 µM): 0.937 | relative viability ([1]; 0.003 µM): 0.976 | relative viability ([1]; 0.03 µM): 0.535 | relative viability ([2]; first compound 0.0003 µM): 0.963 | relative viability ([2]; first compound 0.003 µM): 0.835 | relative viability ([2]; first compound 0.03 µM): 0.717 | relative viability ([3]; first compound 0.0003 µM): 0.593 | relative viability ([3]; first compound 0.003 µM): 0.589 | relative viability ([3]; first compound 0.03 µM): 0.556

NCI-H2085
relative viability ([1]; 0.0003 µM): 0.987 | relative viability ([1]; 0.003 µM): 1.01 | relative viability ([1]; 0.03 µM): 0.495 | relative viability ([2]; first compound 0.0003 µM): 0.786 | relative viability ([2]; first compound 0.003 µM): 0.737 | relative viability ([2]; first compound 0.03 µM): 0.275 | relative viability ([3]; first compound 0.0003 µM): 0.524 | relative viability ([3]; first compound 0.003 µM): 0.507 | relative viability ([3]; first compound 0.03 µM): 0.348

ChaGo-K-1
relative viability ([1]; 0.0003 µM): 0.978 | relative viability ([1]; 0.003 µM): 0.917 | relative viability ([1]; 0.03 µM): 0.919 | relative viability ([3]; first compound 0.0003 µM): 0.494 | relative viability ([3]; first compound 0.003 µM): 0.448 | relative viability ([3]; first compound 0.03 µM): 0.47

NCI-H460
relative viability ([1]; 0.0003 µM): 1 | relative viability ([1]; 0.003 µM): 0.787 | relative viability ([1]; 0.03 µM): 0.334 | relative viability ([2]; first compound 0.0003 µM): 0.509 | relative viability ([2]; first compound 0.003 µM): 0.232 | relative viability ([2]; first compound 0.03 µM): 0.0381 | relative viability ([3]; first compound 0.0003 µM): 0.41 | relative viability ([3]; first compound 0.003 µM): 0.286 | relative viability ([3]; first compound 0.03 µM): 0.247

HCC-78
relative viability ([1]; 0.0003 µM): 0.937 | relative viability ([1]; 0.003 µM): 0.666 | relative viability ([1]; 0.03 µM): 0.345 | relative viability ([2]; first compound 0.0003 µM): 0.389 | relative viability ([2]; first compound 0.003 µM): 0.358 | relative viability ([2]; first compound 0.03 µM): 0.24 | relative viability ([3]; first compound 0.0003 µM): 0.623 | relative viability ([3]; first compound 0.003 µM): 0.462 | relative viability ([3]; first compound 0.03 µM): 0.344

NCI-H650
relative viability ([1]; 0.0003 µM): 0.876 | relative viability ([1]; 0.003 µM): 0.745 | relative viability ([1]; 0.03 µM): 0.51 | relative viability ([2]; first compound 0.0003 µM): 0.76 | relative viability ([2]; first compound 0.003 µM): 0.689 | relative viability ([2]; first compound 0.03 µM): 0.47 | relative viability ([3]; first compound 0.0003 µM): 0.375 | relative viability ([3]; first compound 0.003 µM): 0.257 | relative viability ([3]; first compound 0.03 µM): 0.321
